Data as given in patent US10092579B2, “Gold(I) complexes with anticancer properties and methods of use thereof” (KING FAHD UNIVERSITY OF PETROLEUM AND MINERALS, priority 2016, dated 2018).
Like-named read-outs stand apart in the source and are kept apart here.

Columns and labels:
Format in all cases: cell-based, human
A549 cancer cell line = experiment: MTT assay for anticancer activity, A549 cells; settings: read-out: IC50 against A549
Method: (§1) A549, HeLa and HCT15 human cancer cells were seeded and maintained in triplicate at 4×10^3 cells/well in 100 μL DMEM (Dulbecco's Modified Eagle's Medium) containing 10% FBS (Fetal Bovine Serum) in 96-wells tissue culture plate and incubated for 72 h at 37° C. 5% CO2 in air and 90% relative humidity in CO2 incubator.
(§2) The resultant cultures were incubated for 24 h. The medium of wells was discarded. 100 μL DMEM containing MTT (3-(4,5-Dimethylthiazol-2-Yl)-2,5-Diphenyltetrazolium Bromide) (5 mg/mL) was added to the wells and incubated in CO2 incubator at 37° C. in dark for 4 h. After incubation, a purple colored formazan (artificial chromogenic dye, product of the reduction of water insoluble tetrazolium salts e.g., MMT by dehydrogenases and reductases) in the cells is produced and appeared as dark crystals in the bottom of the wells. The medium of culture was discarded from each well carefully to avoid disruption of monolayer. 100 μL of Dimethylsulphoxide (DMSO) was added in each well. The solution was thoroughly mixed in the wells to dissolve the formazan crystals which ultimately result into a purple solution. The absorbance of the 96-wells plate was taken at 570 nm with Lab systems Multiskan EX-Enzyme-linked immunosorbent assay (EX-ELISA) reader against a reagent blank. All data presented are mean±standard error of the mean (SEM).

HeLa cancer cell line = experiment: MTT assay for anticancer activity, HeLa cells; settings: read-out: IC50 against HeLa
Method: as §1, §2

HCT15 cancer cell line = experiment: MTT assay for anticancer activity, HCT15 cells; settings: read-out: IC50 against HCT15
Method: as §1, §2

[1] = A549 cells, MTT, 24 h incubation
[2] = HeLa cells, MTT, 24 h incubation
[3] = HCT15 cells, MTT, 24 h incubation

Molecule | IC50 (A549 cancer cell line; [1]) [µM] | IC50 (HeLa cancer cell line; [2]) [µM] | IC50 (HCT15 cancer cell line; [3]) [µM] | IC50 (A549 cancer cell line) [µM] | IC50 (HeLa cancer cell line) [µM] | IC50 (HCT15 cancer cell line) [µM]
[Cl][Au].[Cl][Au].c1ccc(P(CP(c2ccccc2)c2ccccc2)c2ccccc2)cc1 [[(DPPM)(AuCl)2](A0), [μ-Bis(diphenylphosphino)methane]dichlorodigold(I)] | 137 | 108 | 148 |  |  | 
tri-tert-butyl-phosphine gold(I) dibenzyldithiocarbamate [Complex (A1)] |  |  |  | 96.9 | 25.6 | 93.2
N.N.[Cl][Pt][Cl] [cisplatin] | 41.6 | 19.4 | 29.5 |  |  | 
